Columns and labels:
[1] = test system: alkaline phosphatase (AP); assay: Chemiluminescent detection of alkaline phosphatase with acridan phosphate and cationic aromatic compound (CAC); type: biochemical
AP-labeled antibody = assay: Western blot assay with compound 5 and lucigenin; details: 0.66 mM 5, 64 μM lucigenin, 0.1 M tris pH 8.8; PVDF membrane
Description: A composition of the present invention were used to detect and quantify a protein, human transferrin in a Western blot with an AP-labeled antibody on a polyvinylidene difluoride (PVDF) membrane. Dilutions of transferrin containing from 5000, 1000, 180, 30 and 5 pg, respectively, of protein were electrophoresed and transferred to PVDF membranes (Millipore, Bedford, Mass.). The transferrin bands were blocked with and then reacted sequentially with goat anti-human transferrin and rabbit anti-goat-AP conjugate. The membranes were soaked briefly with reagents comprising 0.1 M tris buffer, pH 8.8 containing 0.88 mM MgCl2, 0.66 mM compound 5 and 64 μM lucigenin. The membranes were placed between transparent plastic sheets and exposed to X-ray film. The bands for human transferrin were detected after 10 min with a 2.5 min exposure. The light produced using this composition led to intense emission which could be imaged for several hours.
Similar results were obtained using nitrocellulose blotting membrane instead of PVDF membrane.

[2] = test system: alkaline phosphatase (AP); assay: Chemiluminescent detection of alkaline phosphatase with acridan phosphate and surfactant enhancer; type: biochemical; details: 0.66 mM 5, 0.2 M 2-methyl-2-amino-1-propanol pH 9.6, 0.5 mg/mL Enhancer A; 10^−13 mol AP, 25° C.

Question: What does the source list for `CN1c2ccccc2C(=C(OP(=O)([O-])[O-])Sc2ccccc2)c2ccccc21.[Na+].[Na+]` [Compound 5, 9-(Phenylthiophosphoryloxymethylidene)-10-methylacridan, disodium salt]?
Answer: time to maximum chemiluminescence intensity ([1]; 0.66 mM 5, 6.4 μM lucigenin, 1 mg/mL SDS, 0.01 mg/mL Na2SO3, 0.033% TWEEN 20, tris pH 8.8, 8×10^−16 mol AP, 25° C.): 2 min; S at 36 min (plateau intensity) ([1]; 21 mM CAC in DMSO diluted 1:1000 into compound 5 in 0.1 M tris pH 8.8, 4×10^−16 mol AP, room temperature): 34.7; period for which emission could be imaged (AP-labeled antibody): several hours; chemiluminescence on reaction with AP [2]: easily measurable blue chemiluminescence; time to maximum chemiluminescence intensity [2]: 2 min

From patent US6635437B2, “Compounds, compositions and methods for generating chemiluminescence with phosphatase enzymes” (Lumigen, Inc., priority 1996, dated 2003)
